Source: publication PMC5218480 (PLoS ONE, 2017)

Tested on: MV-4-11 cells
Experiment: Gene expression microarray analysis (Affymetrix PrimeView) and GSEA
Assay type: cell-based, human
Set-up: RFU PODN (11730768_x_at) / Fold change /veh PODN (11730768_x_at) / RFU LINC00158 (11744669_a_at) / Fold change /veh LINC00158 (11744669_a_at) / RFU DUSP10 (11751237_a_at) / Fold change /veh DUSP10 (11751237_a_at) / RFU ID3 (11757404_x_at) / Fold change /veh ID3 (11757404_x_at) / RFU PLEKHG5 (11737974_s_at) / Fold change /veh PLEKHG5 (11737974_s_at) / RFU LRRC4B (11730491_at) / Fold change /veh LRRC4B (11730491_at) / RFU GIMAP4 (11747438_a_at) / Fold change /veh GIMAP4 (11747438_a_at) / RFU KRT8 (11758183_x_at) / Fold change /veh KRT8 (11758183_x_at) / RFU CNN1 (11734310_a_at) / Fold change /veh CNN1 (11734310_a_at) / RFU VPS37D (11726825_at) / Fold change /veh VPS37D (11726825_at) / RFU C10orf10 (11716522_x_at) / Fold change /veh C10orf10 (11716522_x_at) / RFU KIR2DL2 /// KIR2DL4 /// KIR2DL5A /// KIR2DL5B /// KIR2DS1 /// KIR2DS2 /// KIR2DS3 /// KIR2DS4 /// KIR3DL3 /// KIR3DL3 /// KIR3DS1 (11738374_at) / Fold change /veh KIR2DL2 /// KIR2DL4 /// KIR2DL5A /// KIR2DL5B /// KIR2DS1 /// KIR2DS2 /// KIR2DS3 /// KIR2DS4 /// KIR3DL3 /// KIR3DL3 /// KIR3DS1 (11738374_at) / RFU C1QL1 (11718748_at) / Fold change /veh C1QL1 (11718748_at) / RFU TMPRSS4 (11747572_a_at) / Fold change /veh TMPRSS4 (11747572_a_at) / RFU HAMP (11756126_x_at) / Fold change /veh HAMP (11756126_x_at) / RFU RNFT2 (11725882_a_at) / Fold change /veh RNFT2 (11725882_a_at) / RFU NR4A2 (11747474_a_at) / Fold change /veh NR4A2 (11747474_a_at) / RFU ABCC12 (11746883_a_at) / Fold change /veh ABCC12 (11746883_a_at) / RFU TMEM136 (11760407_x_at) / Fold change /veh TMEM136 (11760407_x_at) / RFU CLDN22 /// WWC2 (11732394_at) / Fold change /veh CLDN22 /// WWC2 (11732394_at) / RFU HLA-DPB1 (11760878_x_at) / Fold change /veh HLA-DPB1 (11760878_x_at) / RFU SPINT1 (11716480_a_at) / Fold change /veh SPINT1 (11716480_a_at) / RFU GAP43 (11754022_s_at) / Fold change /veh GAP43 (11754022_s_at) / RFU A4GNT (11735810_at) / Fold change /veh A4GNT (11735810_at) / RFU PRB3 (11715151_x_at) / Fold change /veh PRB3 (11715151_x_at) / RFU TUBB4B (11761932_at) / Fold change /veh TUBB4B (11761932_at) / RFU CAPN14 (11732068_a_at) / Fold change /veh CAPN14 (11732068_a_at) / RFU TMCC2 (11721928_a_at) / Fold change /veh TMCC2 (11721928_a_at) / RFU IRGQ (11745062_a_at) / Fold change /veh IRGQ (11745062_a_at) / RFU FAM174B (11720279_a_at) / Fold change /veh FAM174B (11720279_a_at) / RFU TMPRSS4 (11748680_a_at) / Fold change /veh TMPRSS4 (11748680_a_at) / RFU FAM212B (11763350_a_at) / Fold change /veh FAM212B (11763350_a_at) / RFU PLEKHG5 (11743358_a_at) / Fold change /veh PLEKHG5 (11743358_a_at) / RFU ZSCAN30 (11745921_a_at) / Fold change /veh ZSCAN30 (11745921_a_at) / RFU CMKLR1 (11741424_a_at) / Fold change /veh CMKLR1 (11741424_a_at) / RFU LOC101060620 /// MAPK8IP1 (11723275_at) / Fold change /veh LOC101060620 /// MAPK8IP1 (11723275_at) / RFU SPTSSB (11747773_x_at) / Fold change /veh SPTSSB (11747773_x_at) / RFU PRSS12 (11739890_at) / Fold change /veh PRSS12 (11739890_at) / RFU BIN1 (11741810_x_at) / Fold change /veh BIN1 (11741810_x_at) / RFU WNT11 (11732464_a_at) / Fold change /veh WNT11 (11732464_a_at) / RFU C10orf10 (11716521_a_at) / Fold change /veh C10orf10 (11716521_a_at) / RFU C5orf56 (11738089_at) / Fold change /veh C5orf56 (11738089_at) / RFU CYB561 (11721691_x_at) / Fold change /veh CYB561 (11721691_x_at) / RFU ANKRD19P (11752326_a_at) / Fold change /veh ANKRD19P (11752326_a_at) / RFU OR2T12 /// OR2T33 /// OR2T8 (11738714_s_at) / Fold change /veh OR2T12 /// OR2T33 /// OR2T8 (11738714_s_at) / RFU VCAN (11748164_a_at) / Fold change /veh VCAN (11748164_a_at) / RFU JSRP1 (11732532_at) / Fold change /veh JSRP1 (11732532_at) / RFU KRTAP10-11 (11738290_x_at) / Fold change /veh KRTAP10-11 (11738290_x_at) / RFU MYO3A (11730013_a_at) / Fold change /veh MYO3A (11730013_a_at) / RFU EBF3 (11725865_a_at) / Fold change /veh EBF3 (11725865_a_at) / RFU CAMK2N1 (11719241_x_at) / Fold change /veh CAMK2N1 (11719241_x_at) / RFU C5orf56 (11738088_a_at) / Fold change /veh C5orf56 (11738088_a_at) / RFU OLFML3 (11715873_a_at) / Fold change /veh OLFML3 (11715873_a_at) / RFU LOC100653217 /// NTM (11731650_a_at) / Fold change /veh LOC100653217 /// NTM (11731650_a_at) / RFU MAPK11 (11762145_a_at) / Fold change /veh MAPK11 (11762145_a_at) / RFU FIZ1 (11724087_x_at) / Fold change /veh FIZ1 (11724087_x_at) / RFU OASL (11726364_x_at) / Fold change /veh OASL (11726364_x_at) / RFU SOX15 (11748057_x_at) / Fold change /veh SOX15 (11748057_x_at) / RFU CD79A (11719716_a_at) / Fold change /veh CD79A (11719716_a_at) / RFU HIST1H1D (11736915_at) / Fold change /veh HIST1H1D (11736915_at) / RFU CASKIN2 (11723855_a_at) / Fold change /veh CASKIN2 (11723855_a_at) / RFU LOC730098 (11760151_x_at) / Fold change /veh LOC730098 (11760151_x_at) / RFU OR4N2 (11742367_at) / Fold change /veh OR4N2 (11742367_at) / RFU PRRT2 (11749266_a_at) / Fold change /veh PRRT2 (11749266_a_at) / RFU SNX32 (11753110_a_at) / Fold change /veh SNX32 (11753110_a_at) / RFU CDHR5 (11726645_a_at) / Fold change /veh CDHR5 (11726645_a_at) / RFU RCAN1 (11760418_a_at) / Fold change /veh RCAN1 (11760418_a_at) / RFU FAM167A (11723789_a_at) / Fold change /veh FAM167A (11723789_a_at) / RFU FAM26E (11764081_at) / Fold change /veh FAM26E (11764081_at) / RFU ISYNA1 (11749810_s_at) / Fold change /veh ISYNA1 (11749810_s_at) / RFU ACY1 (11761880_at) / Fold change /veh ACY1 (11761880_at) / RFU 11764098_at / Fold change /veh 11764098_at / RFU SAMD14 (11745864_x_at) / Fold change /veh SAMD14 (11745864_x_at) / RFU NPB (11741838_a_at) / Fold change /veh NPB (11741838_a_at) / RFU TMPRSS6 (11731388_a_at) / Fold change /veh TMPRSS6 (11731388_a_at) / RFU KRTAP10-2 (11738614_at) / Fold change /veh KRTAP10-2 (11738614_at) / RFU ARHGAP8 /// PRR5-ARHGAP8 (11727945_x_at) / Fold change /veh ARHGAP8 /// PRR5-ARHGAP8 (11727945_x_at) / RFU KRTAP5-7 /// NADSYN1 (11734609_at) / Fold change /veh KRTAP5-7 /// NADSYN1 (11734609_at) / RFU RASL12 (11751679_a_at) / Fold change /veh RASL12 (11751679_a_at) / RFU CDKN2B (11736163_a_at) / Fold change /veh CDKN2B (11736163_a_at) / RFU PRF1 (11729649_at) / Fold change /veh PRF1 (11729649_at) / RFU, ZNF638 /// ZNF638-IT1 / Fold change vs veh, ZNF638 /// ZNF638-IT1 / RFU, PANK3 / Fold change vs veh, PANK3 / RFU, SH3YL1 / Fold change vs veh, SH3YL1 / RFU, ZEB2 / Fold change vs veh, ZEB2 / RFU, NRIP1 / Fold change vs veh, NRIP1 / RFU, PTTG1IP / Fold change vs veh, PTTG1IP / RFU, CAPN2 / Fold change vs veh, CAPN2 / RFU, MED14 / Fold change vs veh, MED14 / RFU, SNORA58 / Fold change vs veh, SNORA58 / RFU, C1orf63 / Fold change vs veh, C1orf63 / RFU, LRRFIP1 / Fold change vs veh, LRRFIP1 / RFU, NDUFAF7 / Fold change vs veh, NDUFAF7 / RFU, SLC12A2 / Fold change vs veh, SLC12A2 / RFU, IBTK / Fold change vs veh, IBTK / RFU, ESF1 / Fold change vs veh, ESF1 / Fold change vs veh, TMEM50B / RFU, TAOK1 / Fold change vs veh, TAOK1 / RFU, ACBD3 / Fold change vs veh, ACBD3 / RFU, TMA16 / Fold change vs veh, TMA16 / RFU, RWDD3 / Fold change vs veh, RWDD3 / RFU, BCAT1 / Fold change vs veh, BCAT1 / RFU, EDEM3 / Fold change vs veh, EDEM3 / RFU, TMEM33 / Fold change vs veh, TMEM33 / RFU, WDR75 / Fold change vs veh, WDR75 / RFU, AHCTF1 / Fold change vs veh, AHCTF1 / RFU, TFRC / Fold change vs veh, TFRC / RFU, ZDHHC17 / Fold change vs veh, ZDHHC17 / RFU, NOM1 / Fold change vs veh, NOM1 / RFU, ARL8B / Fold change vs veh, ARL8B / RFU, ZBTB11 / Fold change vs veh, ZBTB11 / RFU, TAMM41 / Fold change vs veh, TAMM41 / RFU, KIAA1704 /// LOC100996395 / Fold change vs veh, KIAA1704 /// LOC100996395 / RFU, ING1 / Fold change vs veh, ING1 / RFU, TRMT61B / Fold change vs veh, TRMT61B / RFU, FUBP3 / Fold change vs veh, FUBP3 / RFU, TP53 / Fold change vs veh, TP53 / RFU, TNKS2 / Fold change vs veh, TNKS2 / RFU, ZFP14 / Fold change vs veh, ZFP14 / RFU, ACTR2 / Fold change vs veh, ACTR2 / RFU, PPP3R1 / Fold change vs veh, PPP3R1 / RFU, PIK3R1 / Fold change vs veh, PIK3R1 / RFU, HNRNPA1 / Fold change vs veh, HNRNPA1 / RFU, RNF170 / Fold change vs veh, RNF170 / RFU, ZNF28 / Fold change vs veh, ZNF28 / RFU, RNGTT / Fold change vs veh, RNGTT / RFU, OGT / Fold change vs veh, OGT / RFU, BRD1 / Fold change vs veh, BRD1 / RFU, MARS / Fold change vs veh, MARS / RFU, ZNF655 / Fold change vs veh, ZNF655 / RFU, FAHD1 / Fold change vs veh, FAHD1 / RFU, BDP1 / Fold change vs veh, BDP1 / RFU, LRRCC1 / Fold change vs veh, LRRCC1 / RFU, ARID1A / Fold change vs veh, ARID1A / RFU, ZNF146 / Fold change vs veh, ZNF146 / RFU, ZNF330 / Fold change vs veh, ZNF330 / RFU, GPN3 / Fold change vs veh, GPN3 / RFU, C9orf123 / Fold change vs veh, C9orf123 / RFU, N4BP2L2 / Fold change vs veh, N4BP2L2 / RFU, ARFIP1 / Fold change vs veh, ARFIP1 / RFU, FAM179B / Fold change vs veh, FAM179B / RFU, BCL10 / Fold change vs veh, BCL10 / RFU, UHRF1BP1L / Fold change vs veh, UHRF1BP1L / RFU, BET1 / Fold change vs veh, BET1 / RFU, CNOT2 / Fold change vs veh, CNOT2 / RFU, ZNF268 / Fold change vs veh, ZNF268 / Fold change vs veh, ZNF507 / RFU, DGCR2 / Fold change vs veh, DGCR2 / RFU, WDSUB1 / Fold change vs veh, WDSUB1 / Fold change vs veh, HSP90B1 /// MIR3652 / RFU, ADSS / Fold change vs veh, ADSS / RFU, GK / Fold change vs veh, GK / RFU, ZNF148 / Fold change vs veh, ZNF148 / RFU, TAF9 / Fold change vs veh, TAF9 / RFU, SLC1A5 / Fold change vs veh, SLC1A5 / RFU, SLMO2 / Fold change vs veh, SLMO2 / RFU, ABCC4 / Fold change vs veh, ABCC4 / RFU, LOC101060439 /// RAP1B / Fold change vs veh, LOC101060439 /// RAP1B / RFU, RFX7 / Fold change vs veh, RFX7 / RFU, GTPBP10 / Fold change vs veh, GTPBP10 / RFU, CNEP1R1 / Fold change vs veh, CNEP1R1 / RFU, BIVM-ERCC5 /// ERCC5 / Fold change vs veh, BIVM-ERCC5 /// ERCC5 / RFU, ILF3 / Fold change vs veh, ILF3 / RFU 11762660_at / Fold change /veh 11762660_at / RFU VCAN (11757783_s_at) / Fold change /veh VCAN (11757783_s_at) / RFU DDX43 (11728927_at) / Fold change /veh DDX43 (11728927_at) / RFU KRT8 (11758188_x_at) / Fold change /veh KRT8 (11758188_x_at) / RFU NKD1 (11759106_at) / Fold change /veh NKD1 (11759106_at) / RFU SRD5A1 (11742802_a_at) / Fold change /veh SRD5A1 (11742802_a_at) / RFU TPSAB1 /// TPSB2 (11721975_s_at) / Fold change /veh TPSAB1 /// TPSB2 (11721975_s_at) / RFU GSTM3 (11746129_a_at) / Fold change /veh GSTM3 (11746129_a_at) / RFU IL23R (11737362_x_at) / Fold change /veh IL23R (11737362_x_at) / RFU TMEM51 (11727254_a_at) / Fold change /veh TMEM51 (11727254_a_at) / RFU PIWIL2 (11732686_x_at) / Fold change /veh PIWIL2 (11732686_x_at) / RFU ORM1 (11744905_x_at) / Fold change /veh ORM1 (11744905_x_at) / RFU CCDC152 (11743942_at) / Fold change /veh CCDC152 (11743942_at) / RFU ECM1 (11717891_a_at) / Fold change /veh ECM1 (11717891_a_at) / RFU IL23R (11748794_a_at) / Fold change /veh IL23R (11748794_a_at) / RFU TNFAIP8L3 (11732012_x_at) / Fold change /veh TNFAIP8L3 (11732012_x_at) / RFU MBOAT4 (11741988_at) / Fold change /veh MBOAT4 (11741988_at) / RFU 11764193_at / Fold change /veh 11764193_at / RFU TMEM53 (11763286_at) / Fold change /veh TMEM53 (11763286_at) / RFU MAGEB2 (11727129_at) / Fold change /veh MAGEB2 (11727129_at) / RFU TMEM200A (11744735_a_at) / Fold change /veh TMEM200A (11744735_a_at) / RFU CCDC152 (11751479_a_at) / Fold change /veh CCDC152 (11751479_a_at) / RFU FAM211A (11726209_a_at) / Fold change /veh FAM211A (11726209_a_at) / RFU RGS16 (11746705_a_at) / Fold change /veh RGS16 (11746705_a_at) / RFU VCAN (11755009_s_at) / Fold change /veh VCAN (11755009_s_at) / RFU RHOB (11743442_s_at) / Fold change /veh RHOB (11743442_s_at) / RFU RGS16 (11720943_a_at) / Fold change /veh RGS16 (11720943_a_at) / RFU RGS16 (11720944_at) / Fold change /veh RGS16 (11720944_at) / RFU, VPS4B / Fold change vs veh, VPS4B / RFU, CREB1 / Fold change vs veh, CREB1 / RFU, DNAJC13 / Fold change vs veh, DNAJC13 / RFU, GNAQ / Fold change vs veh, GNAQ / RFU, CDK5R1 / Fold change vs veh, CDK5R1 / RFU, ZRANB3 / Fold change vs veh, ZRANB3 / RFU, CUL4A / Fold change vs veh, CUL4A / RFU, CCNY / Fold change vs veh, CCNY / RFU, UFL1 / Fold change vs veh, UFL1 / RFU, COG3 / Fold change vs veh, COG3 / RFU, DIAPH2 / Fold change vs veh, DIAPH2 / RFU, SKA2 / Fold change vs veh, SKA2 / RFU, AFF3 / Fold change vs veh, AFF3 / RFU, LMF1 / Fold change vs veh, LMF1 / RFU, IPO11 / Fold change vs veh, IPO11 / RFU, DFFB / Fold change vs veh, DFFB / RFU, FOXP1 / Fold change vs veh, FOXP1 / RFU, CARD8 / Fold change vs veh, CARD8 / RFU, STRN3 / Fold change vs veh, STRN3 / RFU, ADK / Fold change vs veh, ADK / RFU, RASSF2 / Fold change vs veh, RASSF2 / RFU, WIPF1 / Fold change vs veh, WIPF1 / RFU, LARP1B / Fold change vs veh, LARP1B / RFU, RASA1 / Fold change vs veh, RASA1 / RFU, RB1 / Fold change vs veh, RB1 / RFU, PPFIA1 / Fold change vs veh, PPFIA1 / RFU, MAT2A / Fold change vs veh, MAT2A / RFU, CCT5 / Fold change vs veh, CCT5 / RFU, WDR92 / Fold change vs veh, WDR92 / RFU, CUX1 / Fold change vs veh, CUX1 / RFU, TTC7A / Fold change vs veh, TTC7A / RFU, TMEM135 / Fold change vs veh, TMEM135 / RFU, DEPTOR / Fold change vs veh, DEPTOR / RFU, CPM / Fold change vs veh, CPM / RFU, DNAJB6 / Fold change vs veh, DNAJB6 / RFU, CACNA2D3 / Fold change vs veh, CACNA2D3 / RFU, DTX4 / Fold change vs veh, DTX4 / RFU, TFCP2 / Fold change vs veh, TFCP2 / RFU, GMCL1 /// GMCL1P1 / Fold change vs veh, GMCL1 /// GMCL1P1 / RFU, AEBP2 / Fold change vs veh, AEBP2 / RFU, SNHG1 /// SNORD22 /// SNORD25 /// SNORD26 /// SNORD27 /// SNORD28 /// SNORD29 /// SNORD31 / Fold change vs veh, SNHG1 /// SNORD22 /// SNORD25 /// SNORD26 /// SNORD27 /// SNORD28 /// SNORD29 /// SNORD31 / Fold change (Aza/veh), C12orf56 (ProbeSet 11735607_a_at) / Fold change (ACY-1035/veh), C12orf56 (ProbeSet 11735607_a_at) / Fold change (Aza/veh), FGFR1OP (ProbeSet 11751329_s_at) / Fold change (ACY-1035/veh), FGFR1OP (ProbeSet 11751329_s_at) / Fold change (Aza/veh), VPS36 (ProbeSet 11739960_a_at) / Fold change (ACY-1035/veh), VPS36 (ProbeSet 11739960_a_at) / RFU SYPL1 (11715823_x_at) / Fold change /veh SYPL1 (11715823_x_at) / RFU IGFBP7 (11715501_s_at) / Fold change /veh IGFBP7 (11715501_s_at) / RFU REEP3 (11722064_at) / Fold change /veh REEP3 (11722064_at) / RFU IGLL1 (11728026_x_at) / Fold change /veh IGLL1 (11728026_x_at): dose or concentration left out as unconfirmed
Conditions: ProbeSet 11743882_a_at; LIST D

Question: How did the “Fold change vs veh, STRN3” value turn out when `Nc1ccc(-c2cccs2)cc1NC(=O)c1ccc2c(c1)cc(C1CC1)n2CCN1CCOCC1` [ACY-1035] was run?
Answer: 0.92
